Assay results published in patent publication US20260262643A1, “HERBICIDAL BENZOXAZINES” (FMC CORPORATION, priority 2022, published 2026).

Columns and labels:
[1] = tested on: oat, wild; assay: Test C postemergence; type: in vivo, Avena fatua; conditions: 10 days, 0 to 100 scale (0 no effect, 100 complete control)
Procedure, shortened: (§1)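 Test material, in non-phytotoxic solvent with surfactant, was sprayed on the soil directly after seeding (preemergence) or on young plants of 2–10 cm with one to two leaves (postemergence). Greenhouse, 10 days; 0–100 visual control scale.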

[2] = tested on: barnyardgrass; assay: Test D flooded paddy test; type: in vivo, Echinochloa crus-galli; conditions: 250 g ai/ha, applied to paddy water, visual rating after 13 to 14 days, scale 0 to 100 (0 no effect, 100 complete control)
Procedure, shortened: (§2)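 Post-flood water application at the 2-leaf stage; 3 cm flood depth kept constant; visual control rating 0–100 after 13–14 days greenhouse growth.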

[3] = tested on: soybean; assay: Test C preemergence; type: in vivo, Glycine max
Procedure, shortened: as §1

[4] = tested on: pigweed, palmer; assay: Test C preemergence; type: in vivo, Amaranthus palmeri
Procedure, shortened: as §1

[5] = tested on: blackgrass; assay: Test C preemergence; type: in vivo, Alopecurus myosuroides
Procedure, shortened: as §1

[6] = tested on: horseweed; assay: Test C postemergence; type: in vivo, Erigeron canadensis; conditions: 10 days, 0 to 100 scale (0 no effect, 100 complete control)
Procedure, shortened: as §1

[7] = tested on: galium; assay: Test C postemergence; type: in vivo, Galium aparine; conditions: 10 days, 0 to 100 scale (0 no effect, 100 complete control)
Procedure, shortened: as §1

[8] = tested on: ragweed; assay: Test C postemergence; type: in vivo, Ambrosia artemisiifolia; conditions: 10 days, 0 to 100 scale (0 no effect, 100 complete control)
Procedure, shortened: as §1

[9] = tested on: green foxtail; assay: Test C preemergence; type: in vivo, Setaria viridis
Procedure, shortened: as §1

[10] = tested on: wheat; assay: Test C postemergence; type: in vivo, Triticum aestivum; conditions: 10 days, 0 to 100 scale (0 no effect, 100 complete control)
Procedure, shortened: as §1

[11] = tested on: kochia; assay: Test C postemergence; type: in vivo, Bassia scoparia; conditions: 10 days, 0 to 100 scale (0 no effect, 100 complete control)
Procedure, shortened: as §1

[12] = tested on: corn; assay: Test C postemergence; type: in vivo, Zea mays; conditions: 10 days, 0 to 100 scale (0 no effect, 100 complete control)
Procedure, shortened: as §1

[13] = tested on: ryegrass, Italian; assay: Test C postemergence; type: in vivo, Lolium multiflorum; conditions: 10 days, 0 to 100 scale (0 no effect, 100 complete control)
Procedure, shortened: as §1

[14] = tested on: ryegrass, Italian; assay: Test C preemergence; type: in vivo, Lolium multiflorum
Procedure, shortened: as §1

[15] = tested on: kochia; assay: Test C preemergence; type: in vivo, Bassia scoparia
Procedure, shortened: as §1

[16] = tested on: ducksalad; assay: Test D flooded paddy test; type: in vivo, Heteranthera limosa; conditions: 250 g ai/ha, applied to paddy water, visual rating after 13 to 14 days, scale 0 to 100 (0 no effect, 100 complete control)
Procedure, shortened: as §2

[17] = tested on: green foxtail; assay: Test C postemergence; type: in vivo, Setaria viridis; conditions: 10 days, 0 to 100 scale (0 no effect, 100 complete control)
Procedure, shortened: as §1

[18] = tested on: blackgrass; assay: Test C postemergence; type: in vivo, Alopecurus myosuroides; conditions: 10 days, 0 to 100 scale (0 no effect, 100 complete control)
Procedure, shortened: as §1

[19] = tested on: ragweed; assay: Test C preemergence; type: in vivo, Ambrosia artemisiifolia
Procedure, shortened: as §1

[20] = tested on: rice; assay: Test D flooded paddy test; type: in vivo, Oryza sativa; conditions: 250 g ai/ha, applied to paddy water, visual rating after 13 to 14 days, scale 0 to 100 (0 no effect, 100 complete control)
Procedure, shortened: as §2

[21] = tested on: wheat; assay: Test C preemergence; type: in vivo, Triticum aestivum
Procedure, shortened: as §1

[22] = tested on: oat, wild; assay: Test C preemergence; type: in vivo, Avena fatua
Procedure, shortened: as §1

[23] = tested on: soybean; assay: Test C postemergence; type: in vivo, Glycine max; conditions: 10 days, 0 to 100 scale (0 no effect, 100 complete control)
Procedure, shortened: as §1

[24] = tested on: barnyardgrass; assay: Test C postemergence; type: in vivo, Echinochloa crusgalli; conditions: 10 days, 0 to 100 scale (0 no effect, 100 complete control)
Procedure, shortened: as §1

[25] = tested on: corn; assay: Test C preemergence; type: in vivo, Zea mays; conditions: 500 g ai/ha, preemergence; 0 to 100 scale (0 no effect, 100 complete control)
Procedure, shortened: as §1

[26] = tested on: pigweed, palmer; assay: Test C postemergence; type: in vivo, Amaranthus palmeri; conditions: 10 days, 0 to 100 scale (0 no effect, 100 complete control)
Procedure, shortened: as §1

[27] = tested on: barnyardgrass; assay: Test C preemergence; type: in vivo, Echinochloa crusgalli
Procedure, shortened: as §1

[28] = tested on: sedge, umbrella; assay: Test D flooded paddy test; type: in vivo, Cyperus difformis; conditions: 250 g ai/ha, applied to paddy water, visual rating after 13 to 14 days, scale 0 to 100 (0 no effect, 100 complete control)
Procedure, shortened: as §2

[29] = 500 g ai/ha, preemergence, 0 to 100 scale (0 no effect, 100 complete control)
[30] = Preemergence, 125 g ai/ha, 0 to 100 scale, 0 no effect, 100 complete control

Cc1ncn(-c2ccc(F)c(C(=S)N3C[C@H](C)Oc4c(C)cccc43)c2)n1 [Compound 362]
Plant response rating, Oat, Wild ([1]; 500 g ai/ha, postemergence): 60 | Plant response rating, Oat, Wild ([1]; Postemergence, 125 g ai/ha): 30 | Plant response rating, Barnyardgrass (Flood) [2]: 35 | Soybean plant response rating [3, 29]: 70 | Plant response rating, Soybean [3, 30]: 50 | Pigweed, Palmer plant response rating [4, 29]: 100 | Plant response rating, Pigweed, Palmer [4, 30]: 90 | Blackgrass plant response rating [5, 29]: 80 | Plant response rating, Blackgrass [5, 30]: 50 | Plant response rating, Horseweed ([6]; 500 g ai/ha, postemergence): 10 | Plant response rating, Horseweed ([6]; Postemergence, 125 g ai/ha): 0 | Plant response rating, Galium ([7]; 500 g ai/ha, postemergence): 100 | Plant response rating, Galium ([7]; Postemergence, 125 g ai/ha): 100 | Plant response rating, Ragweed ([8]; 500 g ai/ha, postemergence): 60 | Plant response rating, Ragweed ([8]; Postemergence, 125 g ai/ha): 50 | Foxtail, Green plant response rating [9, 29]: 100 | Plant response rating, Foxtail, Green [9, 30]: 100 | Plant response rating, Wheat ([10]; 500 g ai/ha, postemergence): 60 | Plant response rating, Wheat ([10]; Postemergence, 125 g ai/ha): 40 | Plant response rating, Kochia ([11]; 500 g ai/ha, postemergence): 90 | Plant response rating, Kochia ([11]; Postemergence, 125 g ai/ha): 80 | Plant response rating, Corn ([12]; 500 g ai/ha, postemergence): 40 | Plant response rating, Corn ([12]; Postemergence, 125 g ai/ha): 30 | Plant response rating, Ryegrass, Italian ([13]; 500 g ai/ha, postemergence): 90 | Plant response rating, Ryegrass, Italian ([13]; Postemergence, 125 g ai/ha): 80 | Ryegrass, Italian plant response rating [14, 29]: 90 | Plant response rating, Ryegrass, Italian [14, 30]: 80 | Kochia plant response rating [15, 29]: 80 | Plant response rating, Kochia [15, 30]: 70 | Plant response rating, Ducksalad (Flood) [16]: 50 | Plant response rating, Foxtail, Green ([17]; 500 g ai/ha, postemergence): 90 | Plant response rating, Foxtail, Green ([17]; Postemergence, 125 g ai/ha): 70 | Plant response rating, Blackgrass ([18]; 500 g ai/ha, postemergence): 90 | Plant response rating, Blackgrass ([18]; Postemergence, 125 g ai/ha): 70 | Ragweed plant response rating [19, 29]: 60 | Plant response rating, Ragweed [19, 30]: 20 | Plant response rating, Rice (Flood) [20]: 25 | Wheat plant response rating [21, 29]: 40 | Plant response rating, Wheat [21, 30]: 10 | Oat, Wild plant response rating [22, 29]: 70 | Plant response rating, Oat, Wild [22, 30]: 0 | Plant response rating, Soybean ([23]; 500 g ai/ha, postemergence): 100 | Plant response rating, Soybean ([23]; Postemergence, 125 g ai/ha): 100 | Plant response rating, Barnyardgrass ([24]; 500 g ai/ha, postemergence): 90 | Plant response rating, Barnyardgrass ([24]; Postemergence, 125 g ai/ha): 60 | Corn plant response rating [25]: 20 | Plant response rating, Pigweed, Palmer ([26]; 500 g ai/ha, postemergence): 80 | Plant response rating, Pigweed, Palmer ([26]; Postemergence, 125 g ai/ha): 30 | Barnyardgrass plant response rating [27, 29]: 100 | Plant response rating, Barnyardgrass [27, 30]: 80 | Plant response rating, Sedge, Umbrella (Flood) [28]: 95
